Structures can show the parent of a compound that is named as a salt. Where two headings read alike, the source gives them in different places.
Experiments:
[1] = biological target: human histamine H1 receptor (Homo sapiens, UniProt P35367); experiment: In vitro human histamine H1 receptor binding experiment ([3H]pyrilamine, HEK293A cells stably expressing the receptor); conditions: [3H]pyrilamine 3 nmol/L, room temperature 60 minutes
Description: Recombinant human histamine H1 receptor plasmid (prepared by Invitrogen) was transfected to HEK293A cells with Lipofectamine 2000 (Invitrogen). Cells stably expressing human histamine H1 receptor were screened with Geneticin (Invitrogen). The cells were continued to be cultured using a Dulbecco's Modified Eagle Medium containing 10% fetal bovine serum, 0.1 mmol/L MEM Non-Essential Amino Acids Solution, 2 mmol/L L-glutamine and 0.7 mg/mL Geneticin in a 5% CO2 incubator at 37° C. The cells stably expressing human histamine H1 receptor were prepared using 50 mmol/L Tris-HCl (pH 7.5) (hereinafter referred to as buffer) containing 0.1% bovine serum albumin, so as to have a concentration of 3×10^6 cells/mL, to give a cell sample preparation. Fifty microliters of the buffer, 50 μL of a test substance solution at various concentrations, and 50 μL of [^3H]pyrilamine solution (final concentration: 3 nmol/L) were added to each of the wells on the 96-well plate, and stirred, and 100 μL of the cell sample preparation was then added thereto (at a concentration of 3×10^5 cells/well) to initiate the reaction.
The cells were incubated at room temperature for 60 minutes, and then filtered on UniFilter GF/C plate (Packard) immersed in 0.5% polyethyleneimine using a cell harvester (IH-110, INNOTECH CORPORATION), to stop the reaction, and the plate was washed with the buffer. The plate after washing was sufficiently dried, and 20 μL of a scintillator (MaxiLight, manufactured by Hidex) was added thereto, and count per minute (cpm) was measured with a multi-labeled microplate reader (Plate Chameleo II, Hidex). The nonspecific binding was cpm in a case where 30 μmol/L pyrilamine was added. The experiments were carried out at n=3, and at least repeated 3 times.

[2] = tested on: histamine-induced vascular hyperpermeability; experiment: Rat histamine-induced vascular hyperpermeability reaction (in vivo antihistamine action); conditions: SD male rat, oral administration, histamine injected intracutaneously 1 hour after administration, leaked Evans Blue; read-out: ED50
Description: An SD male rat (SPF) of 180 g in weight was previously fed for one week or more by allowing the rat to take a solid feed and tap water ad libitum, under the environment setting of a temperature of 22° C., humidity of 55% and an artificial illumination of 12 hours a day (light phase 8 am to 8 pm), and the rat was fasted overnight to be used for the experiment. Histamine.dihydrochloride (hereinafter referred to as histamine) and Evans Blue were used by dissolving each in physiological saline upon use. A substance to be tested was dissolved in water for injection or suspended in 0.5% carboxymethyl cellulose sodium, and the rat was orally administered with the solution or suspension (dose volume: 5 mL/kg body weight). After 1 hour from the administration, the physiological saline and the histamine solution were each intracutaneously injected to two locations (20 μg/0.05 ml/location) each on a back part of the rat of which hair was sheared with an electric clipper while anesthetizing with an ether. A 0.5% Evans Blue-containing physiological saline was injected into the tail vein of the rat (1 mL/200 g body weight) immediately before the intracutaneous injection of the histamine.
After 30 minutes, the animal was decapitated, and exsanguinated, and the skin was removed to measure an amount of leaked pigment in the blue-stained portion. The measurement of the amount of leaked pigment was carried out as follows. Skins of the pigment leaking site were cut out at two locations, 1 mL of a 2 mol/L aqueous potassium hydroxide solution was added thereto in a test tube, and the test tube was allowed to stand overnight at 37° C. to dissolve. Thereafter, 6 mL of a 1:3 mixed solution of 0.67 mol/L phosphoric acid and acetone was added to the solution, and the mixture was vigorously shaken for 10 minutes. Thereafter, the mixture was filtered, and the absorbance of the filtrate at 620 nm was measured. The absorbance obtained from the two locations of the sites injected with physiological saline, as blank value, was used for a compensation. The amount of leaked pigment was calculated from the calibration curve of Evans Blue at 620 nm.

cerebral H1 receptor = biological target: T1, cerebral H1 receptor (Mus musculus, UniProt P70174); experiment: Murine cerebral H1 receptor occupying content (ex vivo, 3H-pyrilamine binding in brain homogenate after oral administration)
T1 construct: The excised brain tissue was homogenized with Polytron (Kinematica); from tissue; host or cells: ICR mouse brain (entire brain except cerebellum and medulla oblongata), homogenate
T1 sequence (P70174 whole entry): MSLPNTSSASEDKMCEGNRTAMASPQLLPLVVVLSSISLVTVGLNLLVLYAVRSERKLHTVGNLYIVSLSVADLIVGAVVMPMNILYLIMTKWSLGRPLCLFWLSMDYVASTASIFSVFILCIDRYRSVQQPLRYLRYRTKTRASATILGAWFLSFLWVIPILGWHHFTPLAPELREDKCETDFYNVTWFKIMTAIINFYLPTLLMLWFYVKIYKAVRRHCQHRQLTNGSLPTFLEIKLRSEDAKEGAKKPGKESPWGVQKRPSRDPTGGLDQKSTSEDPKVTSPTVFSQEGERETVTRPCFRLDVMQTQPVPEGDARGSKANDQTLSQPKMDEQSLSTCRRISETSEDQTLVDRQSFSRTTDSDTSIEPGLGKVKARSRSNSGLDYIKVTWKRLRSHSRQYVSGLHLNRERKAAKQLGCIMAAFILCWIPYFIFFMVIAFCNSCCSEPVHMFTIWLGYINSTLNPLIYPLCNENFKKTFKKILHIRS
Description: A 6-week-old ICR male mouse was previously fed for one week or more by allowing the mouse to take a solid feed and tap water ad libitum, under the environment setting of a temperature of 22° C., humidity of 55% and an artificial illumination of 12 hours a day, and the mouse was fasted overnight to be used for the experiment. A substance to be tested was dissolved with water for injection or suspended in 0.5% carboxymethyl cellulose solution, and the solution or suspension was orally administered to the mouse (dose volume: 0.1 mL/10 g body weight). After 1 hour from the oral administration, the mouse was decapitated, and the entire brain, except for cerebellum and medulla oblongatae, was rapidly excised. The excised brain tissue was homogenized with Polytron (Kinematica) in an ice-cooled 50 mmol/L phosphate buffered saline (pH 7.4, 100 mg/1.9 mL).
To a test tube for reaction (TPX-Tube) were added 180 μL of the brain homogenate, and 10 μL of ^3H-pyrilamine solution (final concentration: 2 nmol/L) and 10 μL of a non-labeled pyrilamine solution (final concentration: 200 μmol/L) or a 50 mmol/L phosphate buffered saline, and the mixture was incubated at room temperature for 45 minutes, and 2.0 mL of an ice-cooled, 50 mmol/L phosphate buffered saline was then added thereto to stop the reaction. The reaction mixture was filtered with a GF/B filter ([…]), and the filtrate was placed in a vial and dried overnight at 60 degrees. After drying, 10 mL of a scintillator (AL-1, toluene-based, DOJINDO LABORATORIES) was added to the product, and the disintegration per minute (dpm) was measured with a liquid scintillation counter (Packard, U.S.A., TRI-CARB 2700TR) (5 minutes/vial).

[3] = ICR male mouse, oral administration, brain excised after 1 hour, larger ID50 = lower brain transfer, read-out: ID50 (the source's name)

Sequence of human histamine H1 receptor (P35367 whole entry): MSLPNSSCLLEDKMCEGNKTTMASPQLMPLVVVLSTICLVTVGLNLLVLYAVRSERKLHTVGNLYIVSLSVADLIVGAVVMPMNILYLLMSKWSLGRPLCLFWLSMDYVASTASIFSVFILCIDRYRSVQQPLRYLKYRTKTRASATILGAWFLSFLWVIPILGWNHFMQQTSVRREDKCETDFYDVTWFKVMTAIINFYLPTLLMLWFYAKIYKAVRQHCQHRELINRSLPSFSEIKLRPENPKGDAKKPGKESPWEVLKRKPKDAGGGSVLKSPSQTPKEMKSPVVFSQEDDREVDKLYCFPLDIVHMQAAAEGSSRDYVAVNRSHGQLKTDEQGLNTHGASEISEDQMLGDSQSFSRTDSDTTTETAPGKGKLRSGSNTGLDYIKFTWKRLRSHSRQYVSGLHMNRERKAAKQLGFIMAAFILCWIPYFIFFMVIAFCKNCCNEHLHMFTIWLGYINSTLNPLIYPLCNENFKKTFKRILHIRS

Compound	IC50 [1] [nM]	ED50 (cerebral H1 receptor; [3]) [mg/kg]	ED50 [2] [mg/kg]	ED50 (cerebral H1 receptor; mouse, po, 1 h, read-out: ID50) [mg/kg]
CCOC(=O)C(C)(C)c1cc2c(s1)C(=O)Cc1ccccc1C2=CCCN(C)C [Compound 24, Ethyl (E,Z)-2-[4-(3-dimethylaminopropylidene)-10-oxo-9,10-dihydro-4H-1-thiabenzo[f]azulen-2-yl]-2-methylpropionate hydrochloride]	13.2	174	~1	–
O=C(O)Cc1ccc2c(c1)/C(=C\CCN1CCCC1)c1sccc1CO2 [Compound 26, (E)-{4-[3-(Pyrrolidin-1-yl)propylidene]-4,10-dihydro-9-oxa-3-thiabenzo[f]azulen-6-yl}acetic acid]	19.2	80.9	0.156	–
O=C(O)Cc1ccc2c(c1)/C(=C/CCN1CCCC1)c1sccc1CO2 [Compound 27, (Z)-{4-[3-(Pyrrolidin-1-yl)propylidene]-4,10-dihydro-9-oxa-3-thiabenzo[f]azulen-6-yl}acetic acid]	70.2	> 200	0.226	–
CCN(C)CC/C=C1\c2cc(CC(=O)O)ccc2OCc2ccsc21 [Compound 30]	57.6	–	~0.3	95
CN(C)CC/C=C1/c2cc(CCC(=O)O)ccc2OCc2sccc21.Cl [Compound 57, (Z)-3-[4-(3-Dimethylaminopropylidene)-4,10-dihydro-9-oxa-1-thiabenzo[f]azulen-6-yl]propionic acid hydrochloride]	56.3	–	~0.1	> 80
O=C(O)CCc1ccc2c(c1)/C(=C\CCN1CCCC1)c1ccsc1CO2 [Compound 58, (E)-3-{4-[3-(Pyrrolidin-1-yl)propylidene]-4,10-dihydro-9-oxa-1-thiabenzo[f]azulen-6-yl}propionic acid]	23	110	~0.1	–
Cl.O=C(O)Cc1ccc2c(c1)/C(=C\CCN1CCCC1)c1sccc1CO2 [Compound 70, (E)-{4-[3-(Pyrrolidin-1-yl)propylidene]-4,10-dihydro-9-oxa-3-thiabenzo[f]azulen-6-yl}acetic acid hydrochloride]	14.3	–	0.42	51.4
Cl.O=C(O)Cc1ccc2c(c1)/C(=C/CCN1CCCC1)c1sccc1CO2 [Compound 71, (Z)-{4-[3-(Pyrrolidin-1-yl)propylidene]-4,10-dihydro-9-oxa-3-thiabenzo[f]azulen-6-yl}acetic acid hydrochloride]	63.4	–	0.83	> 80

Further lines, with some results ahead:

IC50 [1] [nM]	ED50 (cerebral H1 receptor; [3]) [mg/kg]	Compound	ED50 [2] [mg/kg]	ED50 (cerebral H1 receptor; mouse, po, 1 h, read-out: ID50) [mg/kg]
56.9	6.08	CN(C)CC/C=C1\c2cc(CC(=O)O)ccc2OCc2ccsc21 [Compound 19, (E)-[4-(3-Dimethylaminopropylidene)-4,10-dihydro-9-oxa-3-thiabenzo[f]azulen-6-yl]acetic acid]	0.24	–
60	18.7	CN(C)CCC=C1c2cc(C(C)(C)C(=O)O)ccc2OCc2ccsc21 [Compound 22, (E,Z)-2-[4-(3-Dimethylaminopropylidene)-4,10-dihydro-9-oxa-3-thiabenzo[f]azulen-6-yl]-2-methylpropionic acid]	~1	–
43.4	5.85	CN(C)CC/C=C1/c2cc(CC(=O)O)ccc2OCc2sccc21 [Compound 28, (Z)-[4-(3-Dimethylaminopropylidene)-4,10-dihydro-9-oxa-1-thiabenzo[f]azulen-6-yl]acetic acid]	< 0.1	–
70.7	23.7	CN(C)CC/C=C1\c2cc(CC(=O)O)ccc2OCc2sccc21 [Compound 29, (E)-[4-(3-Dimethylaminopropylidene)-4,10-dihydro-9-oxa-1-thiabenzo[f]azulen-6-yl]acetic acid]	< 0.1	–
31.4	34.8	O=C(O)Cc1ccc2c(c1)/C(=C\CCN1CCCCC1)c1sccc1CO2 [Compound 34, (E)-{4-[3-(Piperidin-1-yl)propylidene]-4,10-dihydro-9-oxa-3-thiabenzo[f]azulen-6-yl}acetic Acid]	~0.3	–
–	> 80	O=C(O)Cc1ccc2c(c1)/C(=C/CCNCc1ccccc1)c1sccc1CO2 [Compound 43, (Z)-[4-(3-Benzylaminopropylidene)-4,10-dihydro-9-oxa-3-thiabenzo[f]azulen-6-yl]acetic acid]	1.31	–
89.1	> 80	CN1CCN(CC/C=C2\c3cc(CC(=O)O)ccc3OCc3ccsc32)CC1 [Compound 50, (E)-{4-[3-(4-Methylpiperadin-1-yl)propylidene]-4,10-dihydro-9-oxa-3-thiabenzo[f]azulen-6-yl}acetic acid]	1.34	–
36	> 200	O=C(O)CCc1ccc2c(c1)/C(=C/CCN1CCCC1)c1ccsc1CO2 [Compound 59, (Z)-3-{4-[3-(Pyrrolidin-1-yl)propylidene]-4,10-dihydro-9-oxa-1-thiabenzo[f]azulen-6-yl}propionic acid]	~0.3	–

Source: US8653285B2 (Nippon Zoki Pharmaceutical Co., Ltd., priority 2008, dated 2014)
